Reference: US20060193777A1, “Method of screening compounds for potential efficacy for the treatment of signs of aging” (priority 2005, published 2006)

How the values were obtained:
Human keratinocytes [1] = assay: Visual contraction of human keratinocytes by real time visual microscopy (cell area); type: cell-based
Description: Human keratinocytes and Epilife culture media (Cascade Biologics, Portland, Oreg.) were cultured at 37° C. in a humidified atmospheres of 5% CO2/95% air. Glass Cover Slides (Applied Biophysics, Troy, N.Y.) were coated with 0.01 mg/ml Laminin V (Sigma Aldirch, St Louis, Mo.) in sterile Phosphate Buffered Saline (Gibco Life Sciences, San Diego, Calif.). Human keratinocytes were prepared at a density of 0.125×10^6 cells/mL in Epilife culture media. Human keratinocytes were plated at 3.75×10^4 cells/well on a 6 well plate containing Laminin coated coverslips and cultured at 37° C. in a humidified atmospheres of 5% CO2/95% O2 for 48 hrs. Individual coverslips were transferred to a open bath imaging chamber (Warner Instruments, Hamden, Conn.) mounted on a Leica inverted microscope (Leitz DM1L) with an attached CCD camera. Cells were perfused with Hank's Buffered Salt Solution (HBSS; Gibco Life Sciences, San Diego, Calif.) at flow rate of 1 ml/min using a peristaltic pump (Cole Parmer, Vernon Hills, Ill.). […] The pH of the HBSS without DMAE or THPED. (“Media Alone”) was also adjusted to pH 7.2-7.3. […] Cell area was determined using Scion Image software (Version 4.0.2), and reductions in cell area were reported as the ratio of cell area after treatment to cell area prior to treatment

[2] = test system: granular cells in the viable epidermis; assay: Confocal reflectance microscopy of upper inner arm skin, cell size decrease after product application; type: in vivo, human; details: two microliters/cm^2, imaged over 20 minutes, eight volunteers, gel with 3% DMAE
Description: A study was conducted using a VivaScope 1000 Confocal Reflectance Microscope from Lucid (Rochester, N.Y.) and a water immersion objective of NA 1.2-0.7 (60×). Sites on the upper inner arm were imaged immediately after product application (two microliters/cm^2 was applied) and every 2 minutes for an interval of 20 minutes. […] The confocal microscope was set up to acquire 16 frames from the top of the stratum corneum in steps of 3 micrometers, allowing observation of changes in cell size/morphology within a 48 micrometer depth region. As described by Rajadhyaksha et al., J. Invest. Dermatol. 113(3):293-303 (1999), the size of the cells varies (in diameter) with skin depth from 25-30 micromerters in the granular cells to 15-25 micrometers in spinous cells layers. In this study, cells were observed approximately 21 micrometers from the top of the stratum corneum, primarily granular cells, or at the top of the spinous cells. The exact same cells were compared in the initial maps and in the final maps in order to avoid any interference of cell size differences with the depth as described by Rajadhyaksha et al. After image acquisition, we used an enhancement routine developed in IDL® Software (Research System Inc., Boulder, Colo.) and the cells size area were measured using Image Pro Plus® (Media Cybernetics Inc., Silver Springs, Md.). […]

Human keratinocytes [3] = assay: Reversal of visual contraction of human keratinocytes after removal of DMAE; type: cell-based; details: for Reversal of Visual Contraction of Human Keratinocytes (Mean ± Std Dev): 0.1% DMAE
Description: Human keratinocytes and Epilife culture media (Cascade Biologics, Portland, Oreg.) were cultured at 37° C. in a humidified atmospheres of 5% CO2/95% air. Glass Cover Slides (Applied Biophysics, Troy, N.Y.) were coated with 0.01 mg/ml Laminin V (Sigma Aldirch, St Louis, Mo.) in sterile Phosphate Buffered Saline (Gibco Life Sciences, San Diego, Calif.). Human keratinocytes were prepared at a density of 0.125×10^6 cells/mL in Epilife culture media. Human keratinocytes were plated at 3.75×10^4 cells/well on a 6 well plate containing Laminin coated coverslips and cultured at 37° C. in a humidified atmospheres of 5% CO2/95% O2 for 48 hrs. Individual coverslips were transferred to a open bath imaging chamber (Warner Instruments, Hamden, Conn.) mounted on a Leica inverted microscope (Leitz DM1L) with an attached CCD camera. Cells were perfused with Hank's Buffered Salt Solution (HBSS; Gibco Life Sciences, San Diego, Calif.) at flow rate of 1 ml/min using a peristaltic pump (Cole Parmer, Vernon Hills, Ill.). […] The pH of the HBSS without DMAE or THPED. (“Media Alone”) was also adjusted to pH 7.2-7.3. […] Images were collected of a field of keratinocytes containing 10-20 cells at 0, 10 and 20 minutes of treatment using ImagePro software. Cell area was determined using Scion Image software (Version 4.0.2), and reductions in cell area were reported as the ratio of cell area after treatment to cell area prior to treatment
In the following example, keratinocytes were prepared and plated on coverslips as described above.

Human keratinocytes [4] = assay: Electric Cell-Substrate Impedance Sensing (ECIS) capacitance contraction of human keratinocytes; type: cell-based; details: for Electrical Capacitance Contraction of Human Keratinocytes (AUC of capacitance, Mean ± Std Dev): integrated over 5 hrs, 40,000 Hz, pH 7.2-7.3; for contraction or shrinkage of keratinocyte cell area as measured by keratinocyte capacitance (in words): compared to media treatment alone
Text: Electrical changes due to the presence of a cell layer can be used to calculate cell morphological parameters including the barrier function of the cell layer (the spacing between the ventral side of the cell and the substratum) and the cell membrane capacitance (Giaever and Keese, Proceedings of National Academy of Sciences 88, 7896, 1991).
Current flowing between a reference electrode, onto which cells or cell cultures may be attached, and a larger counter electrode using normal culture medium as the electrolyte can be used to detect changes in cell morphological parameters. In the absence of cells on the electrode, the current flows unrestrained from the surface of the electrodes. In the presence of cells attached and spread upon the electrode, the current must now flow in the spaces under and between the cells, as the cell membrane act as insulators.
The electrical changes of living, viable cells can be sampled rapidly, in real time, over an extended period of time, and the measurements are the measurement is non-invasive. An example of this technology is the Electric Cell-substrate Impedance Sensing System (ECIS) available from Applied Biophysics (Troy, N.Y.). Electrical changes in keratinocyte morphological parameters can be used to identify novel compounds for anti-aging benefits.
Human keratinocytes and Epilife culture media (Cascade Biologics, Portland, Oreg.) were cultured at 37° C. in a humidified atmospheres of 5% CO2/95% air. Electric Cell-substrate Impedance Sensing System (ECIS) electrode arrays (Applied Biophysics , Troy, N.Y.) were coated with 0.01 mg/ml Laminin V (Sigma Aldirch, St Louis, Mo.) in sterile Phosphate Buffered Saline (Gibco Life Sciences, San Diego, Calif.). Human keratinocytes were prepared at a density of 0.125×10^6 cells/mL in Epilife culture media. Human keratinocytes were plated at 5.0×10^4 cells/electrode well and cultured at 37° C. in a humidified atmospheres of 5% CO2/95% O2 for 24-48 hrs. Capacitance changes (in nanofarads, nF) of keratinocytes were measured using a Electric Cell-substrate Impedance Sensing System (ECIS) Model 1600R (Applied Biophysics, Troy, N.Y.) using the method of Wegener and co-workers (Wegener J, Keese C R, Giaever I, Exp Cell Res. 259:158-166, 2000) at a frequency of 40,000 Hz. Capacitance readings are inversely related to the contact area of a cell onto the ECIS electrode array, the greater the cell area contacting the electrode the smaller the capacitance readings (Wegener J, Keese C R, Giaever I, Exp Cell Res. 259:158-166, 2000). Conversely as a cell contracts or shrinks, the contact area of the cell onto the ECIS electrode array decreases, resulting in an increase in the capacitance readings. […] These calculations are based on the trapezoid theorem. The AUC of the media curve was subtracted from the compound treated group. A positive AUC difference indicates keratinocyte contraction, the greater the AUC difference the greater the amount of keratinocyte contraction. […] DMAE is a known skin-firming agent. The compounds were diluted into Hank's Buffered Salt Solution (HBSS; Gibco Life Sciences, San Diego, Calif.) and the pH of the solution adjusted to between pH 7.2-7.3. The pH of the HBSS without compounds (“Media Alone”) was also adjusted to pH 7.2-7.3.

Row | SMILES | contraction or shrinkage of keratinocyte cell area as determined by keratinocyte surface area (in words) (Human keratinocytes [1]) | Visual Contraction of Human Keratinocytes (reduction in cell area, Mean ± Std Dev) (Human keratinocytes [1]; 0.01%, 10 Min) | Visual Contraction of Human Keratinocytes (reduction in cell area, Mean ± Std Dev) (Human keratinocytes [1]; 0.01%, 20 Min) | Visual Contraction of Human Keratinocytes (reduction in cell area, Mean ± Std Dev) (Human keratinocytes [1]; 0.05%, 10 Min) | Visual Contraction of Human Keratinocytes (reduction in cell area, Mean ± Std Dev) (Human keratinocytes [1]; 0.05%, 20 Min) | Visual Contraction of Human Keratinocytes (reduction in cell area, Mean ± Std Dev) (Human keratinocytes [1]; 0.1%, 10 Min) | Visual Contraction of Human Keratinocytes (reduction in cell area, Mean ± Std Dev) (Human keratinocytes [1]; 0.1%, 20 Min) | Percentage of Decreases in Cell Size [2] | Reversal of Visual Contraction of Human Keratinocytes (Mean ± Std Dev) (Human keratinocytes [3]; 20 Min Treatment with DMAE) | Reversal of Visual Contraction of Human Keratinocytes (Mean ± Std Dev) (Human keratinocytes [3]; 30 Min After Removal of DMAE) | Reversal of Visual Contraction of Human Keratinocytes (Mean ± Std Dev) (Human keratinocytes [3]; 60 Min After Removal of DMAE) | reversibility of keratinocyte contraction (in words) (Human keratinocytes [3]; after removal of DMAE) | Electrical Capacitance Contraction of Human Keratinocytes (AUC of capacitance, Mean ± Std Dev) (Human keratinocytes [4]; 0.01% V/V) | Electrical Capacitance Contraction of Human Keratinocytes (AUC of capacitance, Mean ± Std Dev) (Human keratinocytes [4]; 0.05% V/V) | Electrical Capacitance Contraction of Human Keratinocytes (AUC of capacitance, Mean ± Std Dev) (Human keratinocytes [4]; 0.1% V/V) | contraction or shrinkage of keratinocyte cell area as measured by keratinocyte capacitance (in words) (Human keratinocytes [4]) | Visual Contraction of Human Keratinocytes (reduction in cell area, Mean ± Std Dev) (Human keratinocytes [1]; 0.1%, 2 Min)
1 | CN(C)CCO [DMAE, 2-(dimethylamino)ethanol] | dose-dependent contraction or shrinkage | 4.82% ± 0.68% | 6.22% ± 0.95% | 16.40% ± 2.58% | 18.04% ± 3.09% | 23.61% ± 3.03% | 33.83% ± 2.96% | 15% | 32.17% ± 2.65% | 24.25% ± 3.23% | 16.546% ± 3.89% | reversal of the DMAE-induced keratinocyte contraction | 22.82 ± 4.1 | 28.8 ± 5.6 | 36.1 ± 5.9 | dose-dependent contraction or shrinkage | –
2 | CC(O)CN(CCN(CC(C)O)CC(C)O)CC(C)O (stereo not drawn) [THPED, N,N,N′,N′-Tetrakis(2-hydroxypropyl)ethylenediamine] | dose-dependent contraction or shrinkage | – | – | – | – | 37.9% ± 10.7% | 47.3% ± 12.7% | – | – | – | – | – | 29.2 ± 3.2 | 35.1 ± 5.3 | 44.5 ± 9.1 | dose-dependent contraction or shrinkage | 32.9% ± 11.3%
